Measurements: ChEMBL document CHEMBL1833915, “Discovery of potent, orally bioavailable phthalazinone bradykinin B1 receptor antagonists” (J Med Chem, 2011)
Values belong to the compound of their own block, whether it stands above or below them. Activity calls are given as the source filed them. The calls are words filed in the database; no cut-off is given here.

Key:
B1 bradykinin receptor [1] = target: T1, B1 bradykinin receptor (Homo sapiens, UniProt P46663); test: Antagonist activity at human B1 receptor; assay type: functional
T1 sequence (P46663 whole entry): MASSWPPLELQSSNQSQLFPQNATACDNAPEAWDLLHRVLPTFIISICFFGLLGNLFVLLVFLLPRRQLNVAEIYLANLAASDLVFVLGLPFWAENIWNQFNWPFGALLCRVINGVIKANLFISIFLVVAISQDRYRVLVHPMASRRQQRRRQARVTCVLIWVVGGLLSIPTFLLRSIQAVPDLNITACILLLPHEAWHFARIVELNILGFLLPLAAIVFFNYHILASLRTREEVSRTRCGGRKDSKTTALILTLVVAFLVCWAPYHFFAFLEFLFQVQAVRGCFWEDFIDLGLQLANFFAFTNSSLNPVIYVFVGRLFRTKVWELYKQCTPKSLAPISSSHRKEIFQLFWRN

[2] = Fraction unbound in rabbit plasma; assay type: ADME, cell-free, Oryctolagus cuniculus
Oryctolagus cuniculus [3] = test: […] activity in LPS treated rabbit assessed as reversal of DAK-induced hypotension at 0.003 to 1 mg/kg, sc; assay type: functional, organism-based
[4] = target: Sodium channel protein type 5 subunit alpha (Homo sapiens, UniProt Q14524); test: Activity at Nav1.5 ion channel at 1 uM
Sequence of Sodium channel protein type 5 subunit alpha (Q14524 whole entry): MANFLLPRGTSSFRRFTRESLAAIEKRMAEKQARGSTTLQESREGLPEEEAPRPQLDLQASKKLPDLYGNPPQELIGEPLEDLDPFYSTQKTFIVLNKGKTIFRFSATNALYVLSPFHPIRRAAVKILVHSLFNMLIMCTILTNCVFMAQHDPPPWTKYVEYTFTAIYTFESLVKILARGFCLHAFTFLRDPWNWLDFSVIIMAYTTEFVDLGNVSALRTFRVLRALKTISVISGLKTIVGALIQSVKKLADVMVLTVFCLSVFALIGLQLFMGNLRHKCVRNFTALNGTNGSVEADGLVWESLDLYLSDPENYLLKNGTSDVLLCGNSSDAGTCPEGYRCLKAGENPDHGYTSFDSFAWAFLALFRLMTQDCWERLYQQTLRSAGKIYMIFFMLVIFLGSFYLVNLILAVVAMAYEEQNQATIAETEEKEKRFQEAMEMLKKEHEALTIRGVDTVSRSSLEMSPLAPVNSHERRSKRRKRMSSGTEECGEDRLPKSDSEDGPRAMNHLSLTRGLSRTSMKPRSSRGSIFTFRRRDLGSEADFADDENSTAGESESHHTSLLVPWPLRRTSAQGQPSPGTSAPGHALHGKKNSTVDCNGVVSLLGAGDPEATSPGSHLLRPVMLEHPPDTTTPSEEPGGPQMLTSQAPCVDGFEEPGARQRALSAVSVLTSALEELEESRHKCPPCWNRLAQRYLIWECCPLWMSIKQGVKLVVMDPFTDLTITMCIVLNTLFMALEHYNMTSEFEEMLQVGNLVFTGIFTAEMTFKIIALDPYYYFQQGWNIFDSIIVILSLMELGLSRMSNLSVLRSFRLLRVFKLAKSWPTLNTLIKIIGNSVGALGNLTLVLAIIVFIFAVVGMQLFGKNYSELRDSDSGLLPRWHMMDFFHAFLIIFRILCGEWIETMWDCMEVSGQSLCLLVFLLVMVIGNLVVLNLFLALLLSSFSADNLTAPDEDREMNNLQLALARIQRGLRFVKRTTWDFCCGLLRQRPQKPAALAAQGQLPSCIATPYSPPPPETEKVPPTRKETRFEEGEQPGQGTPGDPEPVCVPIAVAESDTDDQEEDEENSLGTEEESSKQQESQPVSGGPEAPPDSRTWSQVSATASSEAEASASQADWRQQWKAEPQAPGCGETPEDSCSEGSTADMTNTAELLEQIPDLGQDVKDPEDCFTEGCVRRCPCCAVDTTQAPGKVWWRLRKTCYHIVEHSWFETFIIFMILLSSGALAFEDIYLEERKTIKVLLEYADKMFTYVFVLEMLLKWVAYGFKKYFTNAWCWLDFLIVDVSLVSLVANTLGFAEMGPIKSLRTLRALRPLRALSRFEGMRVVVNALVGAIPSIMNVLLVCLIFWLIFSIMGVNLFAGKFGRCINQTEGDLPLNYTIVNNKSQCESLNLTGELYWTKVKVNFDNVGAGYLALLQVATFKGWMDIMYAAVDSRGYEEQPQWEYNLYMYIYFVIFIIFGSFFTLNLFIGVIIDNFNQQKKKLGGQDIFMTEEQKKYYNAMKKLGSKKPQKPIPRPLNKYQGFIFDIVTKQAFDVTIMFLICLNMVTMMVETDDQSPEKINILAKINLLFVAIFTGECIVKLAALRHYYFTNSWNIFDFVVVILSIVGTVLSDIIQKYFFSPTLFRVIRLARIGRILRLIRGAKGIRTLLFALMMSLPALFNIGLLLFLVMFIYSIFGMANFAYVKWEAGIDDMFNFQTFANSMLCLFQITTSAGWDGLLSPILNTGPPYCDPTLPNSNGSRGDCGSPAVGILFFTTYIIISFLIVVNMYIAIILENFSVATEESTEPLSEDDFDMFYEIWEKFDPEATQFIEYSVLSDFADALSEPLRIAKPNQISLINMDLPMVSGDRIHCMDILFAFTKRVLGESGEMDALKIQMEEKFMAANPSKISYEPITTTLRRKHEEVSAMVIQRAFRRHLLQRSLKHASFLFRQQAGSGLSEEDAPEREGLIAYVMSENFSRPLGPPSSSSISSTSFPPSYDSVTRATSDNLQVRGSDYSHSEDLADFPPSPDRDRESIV

Oryctolagus cuniculus [5] = test: […] activity in LPS treated rabbit assessed as reversal of DAK-induced hypotension at 0.03 to 3 mg/kg, sc; assay type: functional, organism-based
[6] = target: Potassium voltage-gated channel subfamily A member 5 (Homo sapiens) (UniProt P22460); test: Activity at Kv1.5 ion channel at 1 uM
Sequence of Potassium voltage-gated channel subfamily A member 5 (Homo sapiens) (P22460 whole entry): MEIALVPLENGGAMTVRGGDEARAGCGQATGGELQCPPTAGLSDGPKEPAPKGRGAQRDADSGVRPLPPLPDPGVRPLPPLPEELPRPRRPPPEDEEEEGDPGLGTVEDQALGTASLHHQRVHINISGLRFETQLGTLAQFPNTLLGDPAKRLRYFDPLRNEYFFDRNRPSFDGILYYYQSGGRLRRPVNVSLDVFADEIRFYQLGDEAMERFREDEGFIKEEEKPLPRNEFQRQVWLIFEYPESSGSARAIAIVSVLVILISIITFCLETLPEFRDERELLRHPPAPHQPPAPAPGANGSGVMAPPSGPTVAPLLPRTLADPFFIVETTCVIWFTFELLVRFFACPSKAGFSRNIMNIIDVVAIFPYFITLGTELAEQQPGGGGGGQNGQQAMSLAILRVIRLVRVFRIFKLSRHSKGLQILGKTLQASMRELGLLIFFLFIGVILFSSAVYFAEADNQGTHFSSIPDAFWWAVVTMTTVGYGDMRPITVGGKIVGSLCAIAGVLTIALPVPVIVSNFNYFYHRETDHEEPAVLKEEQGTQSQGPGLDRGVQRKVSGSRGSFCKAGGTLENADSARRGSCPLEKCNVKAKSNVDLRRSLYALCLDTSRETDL

[7] = Oral bioavailability in Sprague-Dawley rat at 5 mg/kg; assay type: ADME, organism-based; conditions: in vivo
B1 bradykinin receptor [8] = target: T1, B1 bradykinin receptor; test: Antagonist activity at human B1 receptor expressed in CHO cells by aequorin-based calcium flux assay; assay type: functional, cell-based
Oryctolagus cuniculus [9] = test: Antihypertensive activity in sc dosed rabbit assessed as reduction in DAK-induced hypotension
B1 bradykinin receptor [10] = target: T2, B1 bradykinin receptor (Oryctolagus cuniculus, UniProt P48748); test: Inhibition of rabbit B1 receptor by cellular calcium flux assay; assay type: functional
T2 sequence (P48748 whole entry): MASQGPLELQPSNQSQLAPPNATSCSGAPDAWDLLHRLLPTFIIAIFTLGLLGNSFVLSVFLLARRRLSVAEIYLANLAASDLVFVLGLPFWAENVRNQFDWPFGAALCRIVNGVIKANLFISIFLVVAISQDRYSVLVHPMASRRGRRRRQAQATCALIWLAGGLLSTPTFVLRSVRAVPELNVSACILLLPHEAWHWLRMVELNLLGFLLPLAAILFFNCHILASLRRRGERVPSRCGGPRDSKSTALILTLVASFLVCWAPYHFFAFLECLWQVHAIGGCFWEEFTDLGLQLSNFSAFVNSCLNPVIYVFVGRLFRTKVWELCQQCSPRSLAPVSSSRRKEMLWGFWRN

[11] = Half life in Sprague-Dawley rat at 2 mg/kg, iv; assay type: ADME, organism-based; set-up: dose 2 mg/kg, route intravenous; conditions: in vivo
[12] = Clearance in Sprague-Dawley rat at 2 mg/kg, iv; assay type: ADME, organism-based; set-up: dose 2 mg/kg, route intravenous; conditions: in vivo
[13] = Volume of distribution at steady state in Sprague-Dawley rat at 2 mg/kg, iv; assay type: ADME, organism-based; set-up: dose 2 mg/kg, route intravenous; conditions: in vivo, read-out: Vdss
[14] = target: Voltage-gated inwardly rectifying potassium channel KCNH2 (Homo sapiens, UniProt Q12809); test: Inhibition of human hERG at 1 uM
Sequence of Voltage-gated inwardly rectifying potassium channel KCNH2 (Q12809 whole entry): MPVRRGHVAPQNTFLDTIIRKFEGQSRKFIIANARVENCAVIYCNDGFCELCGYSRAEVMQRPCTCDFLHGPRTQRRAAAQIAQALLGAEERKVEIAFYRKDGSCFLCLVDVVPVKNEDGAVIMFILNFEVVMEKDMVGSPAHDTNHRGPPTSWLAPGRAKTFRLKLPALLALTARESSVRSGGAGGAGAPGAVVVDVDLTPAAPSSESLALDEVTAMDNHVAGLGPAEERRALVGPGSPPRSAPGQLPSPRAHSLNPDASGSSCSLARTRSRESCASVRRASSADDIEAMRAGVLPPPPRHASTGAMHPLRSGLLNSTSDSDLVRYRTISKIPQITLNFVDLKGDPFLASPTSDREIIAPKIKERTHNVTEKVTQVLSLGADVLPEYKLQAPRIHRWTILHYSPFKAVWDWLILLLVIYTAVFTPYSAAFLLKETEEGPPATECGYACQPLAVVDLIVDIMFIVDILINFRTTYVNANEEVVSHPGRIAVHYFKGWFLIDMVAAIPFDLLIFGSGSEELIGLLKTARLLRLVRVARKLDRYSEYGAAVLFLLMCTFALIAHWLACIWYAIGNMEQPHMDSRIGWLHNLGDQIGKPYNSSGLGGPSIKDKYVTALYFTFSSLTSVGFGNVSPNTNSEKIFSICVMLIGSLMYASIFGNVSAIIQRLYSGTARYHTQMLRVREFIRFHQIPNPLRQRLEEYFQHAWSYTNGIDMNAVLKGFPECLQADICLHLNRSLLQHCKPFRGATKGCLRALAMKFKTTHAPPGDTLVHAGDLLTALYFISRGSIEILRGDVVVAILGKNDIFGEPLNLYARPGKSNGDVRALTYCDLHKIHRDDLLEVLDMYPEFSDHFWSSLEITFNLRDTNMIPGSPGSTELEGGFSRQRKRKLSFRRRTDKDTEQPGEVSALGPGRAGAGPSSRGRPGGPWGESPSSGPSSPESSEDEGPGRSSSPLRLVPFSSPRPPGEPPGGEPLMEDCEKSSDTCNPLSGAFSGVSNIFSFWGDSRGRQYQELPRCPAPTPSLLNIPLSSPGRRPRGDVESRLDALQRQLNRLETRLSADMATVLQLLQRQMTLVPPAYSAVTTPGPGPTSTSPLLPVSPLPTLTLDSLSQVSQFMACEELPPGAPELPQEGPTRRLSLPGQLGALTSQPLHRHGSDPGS

[15] = Oral bioavailability in Sprague-Dawley rat; assay type: ADME, organism-based; conditions: in vivo
[16] = Clearance in Sprague-Dawley rat; assay type: ADME, organism-based; conditions: in vivo
[17] = Oral bioavailability in dog at 1 mg/kg; assay type: ADME, organism-based, Canis lupus familiaris; conditions: in vivo
[18] = Clearance in dog at 1 mg/kg, iv; assay type: ADME, organism-based, Canis lupus familiaris; set-up: dose 1 mg/kg, route intravenous; conditions: in vivo
[19] = Half life in dog at 1 mg/kg, iv; assay type: ADME, organism-based, Canis lupus familiaris; set-up: dose 1 mg/kg, route intravenous; conditions: in vivo
[20] = Volume of distribution at steady state in dog at 1 mg/kg, iv; assay type: ADME, organism-based, Canis lupus familiaris; set-up: dose 1 mg/kg, route intravenous; conditions: in vivo, read-out: Vdss
B1 bradykinin receptor [21] = target: T1, B1 bradykinin receptor; test: Antagonist activity at human B1 receptor by cell-based assay; assay type: functional

Ki (B1 bradykinin receptor [1]): 614 nM
SMILES: O=C(N[C@@H]1CCCc2cc(CN3CCCCC3)ccc21)c1ccc(-n2cnc3ccccc3c2=O)cc1

Ki (B1 bradykinin receptor [1]): 6370 nM
SMILES: Cc1nn(-c2cccc(C(=O)N[C@@H]3CCCc4cc(CN5CCCCC5)ccc43)c2)c(=O)c2ccccc12

Ki (B1 bradykinin receptor [1]): 1.9 nM
SMILES: Cc1nn(-c2ccc(C(=O)N[C@@H]3CCCc4cc(CN5CCCCC5)ccc43)cc2)c(=O)c2c(F)cccc12

fraction unbound [2]: 0.24
Activity [6]: inactive
bioavailability [7]: 61%
IC50 (B1 bradykinin receptor [8]): 0.09 nM
IC50 (Oryctolagus cuniculus [9]): 2.5 nM
IC50 (B1 bradykinin receptor [10]): 0.6 nM
half-life [11]: 3.3 h
clearance [12]: 23.5 mL/min/kg
Vd [13]: 6.45 L/kg
Ki (B1 bradykinin receptor [1]): 0.6 nM
SMILES: Cc1nn(-c2ccc(C(=O)N[C@@H]3CCCc4cc(CN5CCCCC5)ccc43)cn2)c(=O)c2c(F)cccc12
Activity (Oryctolagus cuniculus [3]): Active
Activity [4]: Not Active
Activity (Oryctolagus cuniculus [5]): Active
Activity [14]: Not Active

IC50 (B1 bradykinin receptor [8]): 0.3 nM
IC50 (B1 bradykinin receptor [10]): 2.2 nM
Ki (B1 bradykinin receptor [1]): 0.6 nM
SMILES: Cc1nn(-c2ccc(C(=O)N[C@@H]3CCCc4cc(CN5CCCCC5)ccc43)cn2)c(=O)c2c(F)ccc(F)c12

bioavailability [15]: 6%
IC50 (B1 bradykinin receptor [10]): 4.1 nM
clearance [16]: 123 mL/min/kg
SMILES: Cc1ccc(S(=O)(=O)N2CCNC(=O)[C@H]2CC(=O)N[C@@H]2CCCc3cc(CN4CCCCC4)ccc32)cc1

bioavailability [17]: 60%
bioavailability [7]: 90%
IC50 (B1 bradykinin receptor [8]): 1 nM
IC50 (B1 bradykinin receptor [10]): 21.4 nM
clearance [18]: 19 mL/min/kg
half-life [11]: 10.4 h
clearance [12]: 11.2 mL/min/kg
half-life [19]: 8.9 h
Vd [13]: 7.85 L/kg
Ki (B1 bradykinin receptor [1]): 0.9 nM
Vd [20]: 10.6 L/kg
SMILES: Cc1nn(-c2ccc(C(=O)N[C@@H]3CCCc4cc(CN5CCCCC5)ccc43)cc2)c(=O)c2c(Cl)cccc12

Ki (B1 bradykinin receptor [1]): > 10000 nM
SMILES: O=C(N[C@@H]1CCCc2cc(CN3CCCCC3)ccc21)c1cccc(-n2cnc3ccccc3c2=O)c1

IC50 (B1 bradykinin receptor [21]): 1370 nM
Ki (B1 bradykinin receptor [1]): 1680 nM
SMILES: O=C(CCCCC(=O)c1ccccc1)N[C@@H]1CCCc2cc(CN3CCCCC3)ccc21

Ki (B1 bradykinin receptor [1]): 3.5 nM
SMILES: Cc1nn(-c2ccc(C(=O)N[C@@H]3CCCc4cc(CN5CCCCC5)ccc43)cc2)c(=O)c2c(F)ccc(F)c12

Ki (B1 bradykinin receptor [1]): 64 nM
SMILES: O=C(N[C@@H]1CCCc2cc(CN3CCCCC3)ccc21)c1cccc(-c2coc3ccccc3c2=O)c1

Activity [6]: inactive
SMILES: Cc1nn(-c2ccc(C(=O)N[C@@H]3CCCc4cc(CN5CCCCC5)ccc43)cn2)c(=O)c2c(Cl)cccc12
Activity [4]: Not Active
Activity [14]: Not Active

Ki (B1 bradykinin receptor [1]): 29 nM
SMILES: CCc1nn(-c2ccc(C(=O)N[C@@H]3CCCc4cc(CN5CCCCC5)ccc43)cc2)c(=O)c2ccccc12

Ki (B1 bradykinin receptor [1]): 418 nM
SMILES: O=C(N[C@@H]1CCCc2cc(CN3CCCCC3)ccc21)c1ccc(-n2nc(-c3ccccc3)c3ccccc3c2=O)cc1

Ki (B1 bradykinin receptor [1]): 296 nM
SMILES: O=C(Cc1ccc(C(=O)N[C@@H]2CCCc3cc(CN4CCCCC4)ccc32)cc1)c1ccccc1

bioavailability [7]: 51%
half-life [11]: 6.1 h
clearance [12]: 15 mL/min/kg
Vd [13]: 8.09 L/kg
Ki (B1 bradykinin receptor [1]): 35 nM
SMILES: Cc1nn(-c2ccc(C(=O)N[C@@H]3CCCc4cc(CN5CCCCC5)ccc43)cc2)c(=O)c2ccccc12
